Measured values from patent publication US20150198597A1, “Method for monitoring PARP activity in cells by PARP activation” (Stichting Het Nederlands Kanker Instituut, priority 2012, published 2015).

Tested on: PARP
Conditions: PBMCs; H2O2 at 0, 12.5, 50, 200 and 800 μM; treated and maintained on ice (0-4° Celsius) for 60 minutes; FIG. 3B
Procedure: Cells were treated on ice (at 0-4° Celsius) and cells were maintained on ice (at 0-4° Celsius) for 60 minutes. Cells were immediately lysed thereafter and PAR levels were measured by using the Trevigen® PARP Pharmacodynamic assay II. The PAR levels (y-axis) are plotted against the H2O2 concentration (x-axis).
The assay was used to quantify the amount of PAR in peripheral blood mononuclear cells (PBMC).
Peripheral Blood Mononuclear Cells (PBMCs) were prepared by drawing 8 ml blood from a subject in a BD vacutainer CPT-citrate tube (RT) at the clinic. Invert the tubes three times to mix the anti-coagulant (1 ml) with the blood and keep the tube at room temperature (RT). Centrifuge for 25 minutes at 1500×g at RT, and invert the tubes three times. Pour the upper layer into a 50 ml Falcon tube on ice and incubate on ice for 5 minutes. Adjust the total volume to 50 ml with ice-cold PBS and centrifuge 10 minutes at 330×g at 4° Celsius. Decant the supernatant and place the tube inverted on filter paper for 2 seconds. Re-suspend the pellet in 10 ml ice-cold PBS. Count the PBMCs with a hema-cytometer and centrifuge 10 minutes at 330×g at 4° Celsius. Re-suspend the pellet at 2×10exp6 PBMC/500 μl in PBS and transfer to a pre-chilled 2.0 ml tube on ice.
For example, cells are suspended at 2×10E6 PBMC/500 μl culture PBS. […]

## OO [H2O2, hydrogen peroxide]
  PAR levels: Higher PAR levels were found with increasing H2O2 treatment concentration
